From patent publication US10328093B2, “Anthracycline formulations” (CYTRX CORPORATION, priority 2012, dated 2019)

Test: pH stability study of DOXO-EMCH in DI Water or pH 4.0 buffer (RP-HPLC)
Format: physicochemical
Settings: for DOXO-EMCH / Doxorubicin / pH: room temperature
Method: To analyze DOXO-EMCH's behavior in solution, a reversed-phase (RP) HPLC method for quantitation of DOXO-EMCH and various impurities and degradation products was utilized. Samples (1.0 μL injection volume) were assayed on an HPLC system fitted with a Phenomenex Gemini C18 column 100×2.0 mm, 3 μm at a flow rate of 0.3 mL/min. The mobile phase used was an acetate/acetonitrile gradient. The degradation product EMCH could not be detected using the above HPLC method, and was therefore determined using a liquid chromatography-mass spectrometry (LC-MS) method.
Studies were performed to examine the effects of pH on DOXO-EMCH stability. In these studies, a criterion of less than 3% doxorubicin over 3-5 hours was set as the goal for stability of DOXO-EMCH. Overall, studies were designed to measure the degradation of DOXO-EMCH at room temperature into doxorubicin and EMCH. Doxorubicin was measured as a percentage of the starting DOXO-EMCH material. Due to solubility issues, the buffer controlled pH portion of the study could not be completed at pH 5.0, 5.5, 6.0 and 7.0. The results below are for DOXO-EMCH dissolved in DI Water at low (2.0 mg/mL) and high (20.0 mg/mL) concentration, and DOXO-EMCH dissolved in pH 4.0 phosphate citrate buffer at low concentration. In summary, none of the conditions met the goal of less than 3% doxorubicin HCl over a 3-5 hour period. […] The DOXO-EMCH dissolved in pH 4.0 phosphate citrate buffer was very unstable, likely as a result of the breakdown of the molecule at pH values below ˜4.5 (Table 6).

[1] = ~2.0 mg/mL in DI Water, no pH adjustment, 0 hr
[2] = ~2.0 mg/mL in DI Water, no pH adjustment, 2 hr
[3] = ~2.0 mg/mL in DI Water, no pH adjustment, 4 hr
[4] = ~2.0 mg/mL in DI Water, no pH adjustment, 6 hr
[5] = ~2.0 mg/mL in pH 4.0 phosphate citrate buffer, 0 hr
[6] = ~2.0 mg/mL in pH 4.0 phosphate citrate buffer, 2 hr
[7] = ~2.0 mg/mL in pH 4.0 phosphate citrate buffer, 4 hr
[8] = ~20.0 mg/mL in DI Water, no pH adjustment, 0 hr
[9] = ~20.0 mg/mL in DI Water, no pH adjustment, 2 hr
[10] = ~20.0 mg/mL in DI Water, no pH adjustment, 4 hr
[11] = ~20.0 mg/mL in DI Water, no pH adjustment, 6 hr

COc1cccc2c1C(=O)c1c(O)c3c(c(O)c1C2=O)C[C@@](O)(/C(CO)=N/NC(=O)CCCCCN1C(=O)C=CC1=O)C[C@@H]3O[C@H]1C[C@H](N)[C@H](O)[C@H](C)O1.Cl [DOXO-EMCH]
stability (dissolved in pH 4.0 phosphate citrate buffer): very unstable | DOXO-EMCH [1]: 95.8 wt % | Doxorubicin [1]: 0.6 wt % | pH [1]: 6.0 | DOXO-EMCH [2]: 82.8 wt % | Doxorubicin [2]: 3.7 wt % | pH [2]: 5.4 | DOXO-EMCH [3]: 76.7 wt % | Doxorubicin [3]: 8.9 wt % | pH [3]: 5.1 | DOXO-EMCH [4]: 68.6 wt % | Doxorubicin [4]: 14.3 wt % | pH [4]: 5.0 | DOXO-EMCH [5]: 65.1 wt % | Doxorubicin [5]: 23.5 wt % | pH [5]: 4.0 | DOXO-EMCH [6]: 7.3 wt % | Doxorubicin [6]: 66.1 wt % | pH [6]: 4.0 | DOXO-EMCH [7]: 2.9 wt % | Doxorubicin [7]: 68.8 wt % | pH [7]: 4.0 | DOXO-EMCH [8]: 86.0 wt % | Doxorubicin [8]: 7.8 wt % | pH [8]: 4.8 | DOXO-EMCH [9]: 74.9 wt % | Doxorubicin [9]: 15.6 wt % | pH [9]: 4.6 | DOXO-EMCH [10]: 56.7 wt % | Doxorubicin [10]: 24.8 wt % | pH [10]: 4.5 | DOXO-EMCH [11]: 45.2 wt % | Doxorubicin [11]: 32.2 wt % | pH [11]: 4.6
